Where two headings read alike, the source gives them in different places. Residues, ends and D or L forms follow the SMILES beside them.
Legend:
[1] = biological target: T1, thrombin (Bos taurus, UniProt P00735); assay: Amidolytic activity of thrombin (chromogenic substrate H-D-Phe-Pip-Arg-pNA); assay type: biochemical
T1 construct: purchased Lubelska Wytwórnia Szczepionek (Lublin, Poland)
Experimental: The determination of amidolytic activity was performed as previously described by Okada. A detailed description of the method is given below: 0.2 mL of the examined peptides (0.15 M NaCl as contro), a buffer, and 0.1 mL of enzyme solution were mixed. The final peptide concentrations were: 0.2 mM, 2 mM, and 20 mM. The mixture was incubated at 37 °C for 3 min; then the synthetic substrate solution was added in the same buffer. […] The mean values from three independent experiments done in duplicate are presented. A method error of 5% was adopted as statistical error. […] IC50 was calculated mathematically by extrapolation using a linear plot.

[2] = biological target: T2, urokinase (Homo sapiens, UniProt P00749); assay: Amidolytic activity of urokinase (chromogenic substrate pyro-Glu-Gly-Arg-pNA); assay type: biochemical
T2 construct: purchased Sigma (Schnelldorf, Germany)
Experimental: (§1) The determination of amidolytic activity was performed as previously described by Okada. A detailed description of the method is given below: 0.2 mL of the examined peptides (0.15 M NaCl as contro), a buffer, and 0.1 mL of enzyme solution were mixed. The final peptide concentrations were: 0.2 mM, 2 mM, and 20 mM. The mixture was incubated at 37 °C for 3 min; then the synthetic substrate solution was added in the same buffer. After 20 min of incubation, the reaction was stopped by adding 0.1 mL of 50% acetic acid and the absorbance of the released p-nitroaniline was measured at 405 nm. The mean values from three independent experiments done in duplicate are presented. A method error of 5% was adopted as statistical error. IC50 value was considered as the concentration of inhibitor that reduces absorbance by 50%, compared with absorbance measured under the same conditions without an inhibitor. IC50 was calculated mathematically by extrapolation using a linear plot. IC50 values are presented in Table 1 and Table 2, and graphically in Figure 1.
(§2) The buffers and the enzyme solutions included: • Tris buffer—0.6 mL (pH 8.8), enzyme: urokinase (50 units/mL), synthetic substrate: pyro-Glu-Gly-Arg-pNA·HCl (0.1 mL, 3 mM); • Tris buffer—0.5 mL (pH 8.4), enzyme: thrombin (1 units/mL), synthetic substrate: H-D-Phe-Pip-Arg-pNA (0.2 mL, 0.75 mM); • Tris buffer—0.5 mL (pH 7.4), enzyme: plasmin (0.4 units/mL), synthetic substrate: H-D-Val-Leu-Lys-pNA (0.2 mL, 3 mM); • Borate buffer—0.5 mL (pH 7.5), enzyme: trypsin (0.4 units/mL), synthetic substrate: Bzl-L-Arg-pNA·HCl (0.2 mL, 8 mM); • Tris buffer—0.6 mL (pH 9.0), enzyme: kallikrein (3 units/mL), synthetic substrate: H-D-Val-Leu-Arg-pNA·2HCl (0.1 mL, 75 mM); • Tris buffer—0.6 mL (pH 8.4), enzyme: t-PA ([…]), synthetic substrate: H-D-Ile-Pro-Arg-pNA (0.1 mL, 10 mM) • Tris buffer—0.6 mL (pH 9.0), enzyme: chymotrypsin (0.4 units/mL), synthetic substrate: Suc-Phe-pNA (0.2 mL, 8 mM)

[3] = Viability of fibroblast cells, MTT assay; assay type: cell-based, Human; conditions: human, primary dermal fibroblast cells
Experimental: Viability of fibroblast cells was examined with the use of the MTT assay. MTT, a yellow tetrazole, is reduced to purple formazan only in living cells. Absorbance of the coloured solution was measured by a spectrophotometer.
These studies were performed on primary dermal fibroblasts cells. The cells were maintained in DMEM supplemented with 10% fetal bovine serum (FBS), 2 mM glutamin, 50 U/mL penicillin and […] streptomycin at 37 °C in a 5% CO2 incubator. For experiments, cells cultures were plated at a density of 1 × 10^6/well in six-well culture plates (Costar, St. Louis, MO, USA) in 2 mL of growth medium. Cells reached about 80% of confluency at day 2 were used for the assays.
Toxicity of the tested substances was determined using an MTT [3-(4,5-dimethylthiazol-2-yl)-2,5-diphenyltetrazolium bromide)] assay. Palmitoyl and lipoyl peptides were dissolved in DMSO (dimethyl sulfoxide), the other peptides in DMEM, and added to the cell culture medium. Simultaneously, the same concentrations of DMSO without peptides were added to cells, serving as controls. The final peptide concentrations were: 1 μM, 10 μM, and 100 μM. After 24 h incubation, the cells cultured with the tested compounds were washed with phosphate-buffered saline (PBS) and then incubated for 4 h in 2 mL of MTT solution (5 mg/mL). After removing the medium, the cells were lysed in 200 μL of DMSO with 20 μL of Sorensen’s buffer (pH 10.5, 0.1 mol/L glycine with 0.1 mol/L NaCl). The absorbance of converted dye in living cells was measured at a wavelength of 570 nm. The mean values ± SD from three independent experiments done in duplicate are presented.

[4] = biological target: T3, plasmin (Homo sapiens, UniProt P00747); assay: Amidolytic activity of plasmin (chromogenic substrate H-D-Val-Leu-Lys-pNA); assay type: biochemical
T3 construct: purchased Chromogenix (Milano, Italy)
T3 sequence (P00747 581-810 limits assumed): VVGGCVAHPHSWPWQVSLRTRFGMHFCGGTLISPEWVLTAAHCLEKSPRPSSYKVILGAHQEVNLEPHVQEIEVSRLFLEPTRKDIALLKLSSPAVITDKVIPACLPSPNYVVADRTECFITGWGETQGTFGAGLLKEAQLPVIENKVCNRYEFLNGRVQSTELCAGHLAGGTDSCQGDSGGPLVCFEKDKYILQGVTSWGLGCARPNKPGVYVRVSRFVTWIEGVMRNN
T3 sequence (P00747 97-580 partner limits assumed): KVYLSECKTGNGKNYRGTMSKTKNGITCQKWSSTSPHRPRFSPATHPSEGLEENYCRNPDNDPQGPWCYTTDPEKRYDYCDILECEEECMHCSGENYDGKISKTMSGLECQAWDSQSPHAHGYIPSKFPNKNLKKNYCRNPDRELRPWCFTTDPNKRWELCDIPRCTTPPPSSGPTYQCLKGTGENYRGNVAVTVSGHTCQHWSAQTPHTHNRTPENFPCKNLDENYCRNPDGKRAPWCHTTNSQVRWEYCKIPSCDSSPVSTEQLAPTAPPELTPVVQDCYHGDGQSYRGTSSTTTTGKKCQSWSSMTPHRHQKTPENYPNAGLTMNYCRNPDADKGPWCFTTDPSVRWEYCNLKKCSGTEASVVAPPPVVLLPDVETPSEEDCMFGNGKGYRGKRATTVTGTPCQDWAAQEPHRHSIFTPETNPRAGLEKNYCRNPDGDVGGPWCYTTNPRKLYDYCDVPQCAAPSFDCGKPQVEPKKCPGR
Experimental: as §1, §2

[5] = amidolytic activity, Tris pH 8.4, 37 °C, IC50 by extrapolation using a linear plot, error 5%, read-out: IC50 Thrombin
[6] = amidolytic activity, Tris pH 8.8, 37 °C, IC50 by extrapolation using a linear plot, error 5%, read-out: IC50 Urokinase
[7] = 1 µmol/L, 24 h, MTT, ± 2, read-out: Viability of fibroblast cells
[8] = 10 µmol/L, 24 h, MTT, ± 2, read-out: Viability of fibroblast cells
[9] = 100 µmol/L, 24 h, MTT, ± 2, read-out: Viability of fibroblast cells
[10] = amidolytic activity, Tris pH 7.4, 37 °C, IC50 by extrapolation using a linear plot, error 5%, read-out: IC50 Plasmin
[11] = converted from IC50 of Table 1, read-out: -logIC50 Plasmin (converted)

| Compound | IC50 [1, 5] | IC50 [2, 6] | viability at 24 h, 1 µmol/L [3, 7] | viability at 24 h, 10 µmol/L [3, 8] | viability at 24 h, 100 µmol/L [3, 9] | IC50 [4, 10] | level of inhibition of thrombin activity [1] | level of inhibition of urokinase activity [2] | level of inhibition of plasmin activity [4] | IC50 [4, 11] | IC50 [1] | viability at 24 h, 1 µmol/L [3] | viability at 24 h, 10 µmol/L [3] | viability at 24 h, 100 µmol/L [3] | IC50 ([2]; converted from IC50 of Table 1, read-out: -logIC50 Urokinase (converted)) |
| --- | --- | --- | --- | --- | --- | --- | --- | --- | --- | --- | --- | --- | --- | --- | --- |
| Ac-RTTKS-NH2 [Peptide 30, Ac-Arg-Thr-Thr-Lys-Ser- NH2] | 1.59 ± 0.08 mM | 12.1 ± 0.6 mM | 95% | 105% | 101% | 5 ± 0.25 mM |  |  |  |  |  |  |  |  |  |
| C[C@@H](O)[C@H](NC(=O)[C@H](CCCNC(=N)N)NC(=O)CCCCC1CCSS1)C(=O)N[C@H](C(=O)N[C@@H](CCCCN)C(=O)N[C@@H](CO)C(N)=O)[C@@H](C)O (mixture of isomers) [Peptide 31, Lip-Arg-Thr-Thr-Lys-Ser- NH2] | 5.59 ± 0.28 mM | 4.57 ± 0.23 mM | 107% | 112% | 117% | 3.23 ± 0.16 mM |  |  |  |  |  |  |  |  |  |
| CCCCCCCCCCCCCCCC(=O)N[C@@H](CCCNC(=N)N)C(=O)N[C@H](C(=O)N[C@H](C(=O)N[C@@H](CCCNC(=N)N)C(=O)N[C@@H](CO)C(=O)O)[C@@H](C)O)[C@@H](C)O [Peptide 20, Pal-Arg-Thr-Thr-Arg-Ser-OH] (HELM PEPTIDE1{[CCCCCCCCCCCCCCCC(=O)[*:2]].R.T.T.R.S}$$$$V2.0) | < 0.2 mM |  | 90% | 90% | 103% |  | above 90% | above 90% | above 90% |  |  |  |  |  |  |
| H-RTTKS-NH2 [Peptide 29, H-Arg-Thr-Thr-Lys-Ser-NH2] | 2.43 ± 0.12 mM | 7.95 ± 0.4 mM | 101% | 111% | 110% | 0.3 ± 0.015 mM |  |  |  | 0.309 mM |  |  |  |  |  |
| H-KTTKS-NH2 [Peptide 5, H-Lys-Thr-Thr-Lys-Ser-NH2] | 7.04 ± 0.35 mM | 9.15 ± 0.46 mM | 91% | 91% | 100% | 0.53 ± 0.026 mM |  |  |  |  |  |  |  |  |  |
| Ac-RTTRS-OH [Peptide 18, Ac-Arg-Thr-Thr-Arg-Ser-OH] | 3.12 ± 0.16 mM | 3.24 ± 0.16 mM | 88% | 103% | 107% | 8.81 ± 0.44 mM |  |  |  | 8.91 mM |  |  |  |  |  |
| C[C@@H](O)[C@H](NC(=O)[C@H](CCCCN)NC(=O)CCCCC1CCSS1)C(=O)N[C@H](C(=O)N[C@@H](CCCNC(=N)N)C(=O)N[C@@H](CO)C(N)=O)[C@@H](C)O (mixture of isomers) [Peptide 15, Lip-Lys-Thr-Thr-Arg-Ser-NH2] |  | 3.47 ± 0.17 mM |  |  |  | 0.69 ± 0.035 mM |  |  |  |  | 4.11 ± 0.21 mM | 112% | 122% | 115% |  |
| Ac-KTTRS-OH [Peptide 10, Ac-Lys-Thr-Thr-Arg-Ser-OH] | 2.89 ± 0.14 mM |  | 104% | 100% | 94% | 2.24 ± 0.11 mM |  |  |  |  |  |  |  |  | 4.79 mM |
| Ac-KTTKS-NH2 [Peptide 6, Ac-Lys-Thr-Thr-Lys-Ser-NH2] | 3.25 ± 0.16 mM | > 20 mM | 97% | 88% | 86% | 2.92 ± 0.15 mM |  |  |  |  |  |  |  |  |  |
| Ac-KTTKS-OH [Peptide 2, Ac-Lys-Thr-Thr-Lys-Ser-OH] | 2.2 ± 0.11 mM | 3.88 ± 0.19 mM | 98% | 88% | 82% | 2.78 ± 0.14 mM |  |  |  |  |  |  |  |  |  |
| C[C@@H](O)[C@H](NC(=O)[C@H](CCCCN)NC(=O)CCCCC1CCSS1)C(=O)N[C@H](C(=O)N[C@@H](CCCCN)C(=O)N[C@@H](CO)C(N)=O)[C@@H](C)O (mixture of isomers) [Peptide 7, Lip-Lys-Thr-Thr-Lys-Ser-NH2] | 11.7 ± 0.58 mM | 15.1 ± 0.75 mM | 97% | 89% | 87% | 0.58 ± 0.029 mM |  |  |  |  |  |  |  |  |  |
| Ac-RTTRS-NH2 [Peptide 22, Ac-Arg-Thr-Thr-Arg-Ser-NH2] | 1.47 ± 0.074 mM | > 20 mM | 102% | 99% | 101% | 9.08 ± 0.45 mM |  |  |  |  |  |  |  |  |  |
| C[C@@H](O)[C@H](NC(=O)[C@H](CCCNC(=N)N)NC(=O)CCCCC1CCSS1)C(=O)N[C@H](C(=O)N[C@@H](CCCNC(=N)N)C(=O)N[C@@H](CO)C(N)=O)[C@@H](C)O (mixture of isomers) [Peptide 23, Lip-Arg-Thr-Thr-Arg-Ser-NH2] | 2.36 ± 0.12 mM | 4.67 ± 0.23 mM | 89% | 79% | 88% | 1.89 ± 0.094 mM |  |  |  |  |  |  |  |  |  |
